The values below come from patent US20090307791A1, “CALCIUM-ACTIVATED CHLORIDE CHANNEL AND METHODS OF USE THEREOF” (priority 2008, published 2009).

One experiment deals with CaCC. Description: Ca2+ evoked current in A23187 treated Xenopus oocytes. The class given is cell-based. The conditions noted are these: Ca2+ 5 mM. The method, then:
(§1) For experiments involving TMEM16 constructs, capped cRNA was in vitro transcribed from linearized plasmids using the mMessage mMachine kit (Ambion). Female Axolotls and Xenopus laevis were purchased from the Ambystoma Genetic Stock Center and Nasco respectively. Oocytes from these animals were defoliculated by treatment with collagenase prepared as described. Usually 5 ng of cRNA (50 ng for mRNA) was injected into defolliculated oocytes. Oocytes were kept at 17° C. in ND96 solution (96 mM NaCl, 2 mM KCl, 1.8 mM CaCl2, 1 mM MgCl2, 10 mM HEPES [pH 7.4]). Two-electrode voltage-clamp measurements were performed at room temperature 2-4 days after injection using a GeneClamp500 amplifier (Axon Instruments) and pClamp 8.0 software (Axon Instruments). Oocytes used in photolysis experiments were injected with […] of 100 μM caged inositol trisphosphate [myo-inositol 1,4,5-trisphosphate, P4(5)-1-(2-nitrophenyl)ethyl ester] (Molecular Probes) at least 1 h before recording, and kept in dark until usage. For flash photolysis light derived from a mercury arc lamp was guided by a fused silica fiber (Oriel) to the top of oocytes in the recording chamber. Flash time was controlled via electronic shutter.
FIGS. 2A-f. Carbachol and Ca^2+ evoked current responses in different oocytes. […]

The subject of the next experiment is endogenous CaCCs. In words: NFA inhibition of IP3-induced Ca2+ activated Cl- currents, two electrode voltage clamp, Xenopus oocytes. Format: cell-based, Xenopus laevis. The method, then:
as §1
Currents were usually recorded in Ca^2+ free ND96 solution (96 mM NaCl, 2 mM KCl, 3 mM MgCl2, 10 mM HEPES [pH 7.4]). Solutions for Cl^−/gluconate replacement experiments were prepared from appropriate mixtures of solutions containing high Cl^− (95 mM NaCl, 1 mM KCl, 2 mM MgCl2, 10 mM HEPES [pH 7.4]) and solutions containing high gluconate (95 mM NaGluconate, 1 mM KCl, 2 mM MgCl2, 10 mM HEPES [pH 7.4]). In other permeability experiments solutions containing 90 NaX, 2 KCl, 4 MgCl, 10 mM HEPES [pH 7.4] with X=Cl^−, Br^−, I^− or SCN^− were used. […] The permeability ratios were calculated from shifts in reversal potential ΔErev using the Goldman-Hodgkin-Katz Equation in the form: PX/PCl=(γ·[Cl^−](1)−[Cl^−](2))/[X^−](2) were [Cl^−](1), [Cl^−](2) and [X^−](2) are the external Cl^− and X^− concentration before and after solution exchange. […]
A general note: Two-electrode voltage clamp holds a large cell at a set potential and records current.

In a further experiment the test system is xTMEM16A. In words: NFA inhibition of IP3-induced CaCC currents, two electrode voltage clamp, Axolotl oocytes injected with xTMEM16A cRNA. Format: cell-based. The conditions noted are these: Axolotl oocytes expressing xTMEM16A, 30 μM NFA, long lasting current. How it is done: as §1, with “(Molecular Probes) at least 1 h before recording, and kept in dark until usage. For flash photolysis light derived from a mercury arc lamp was guided by a fused silica fiber (Oriel) to the top of oocytes in the recording chamber. Flash time was controlled via electronic shutter.” left out
Currents were usually recorded in Ca^2+ free ND96 solution (96 mM NaCl, 2 mM KCl, 3 mM MgCl2, 10 mM HEPES [pH 7.4]). […] The permeability ratios were calculated from shifts in reversal potential ΔErev using the Goldman-Hodgkin-Katz Equation in the form: PX/PCl=(γ·[Cl^−](1)−[Cl^−](2))/[X^−](2) were [Cl^−](1), [Cl^−](2) and [X^−](2) are the external Cl^− and X^− concentration before and after solution exchange. […]

For `CNc1ccc2oc(C[C@H]3O[C@@]4(CC[C@H]3C)O[C@H]([C@H](C)C(=O)c3ccc[nH]3)[C@H](C)C[C@H]4C)nc2c1C(=O)O` [A23187], the “CaCC activation by A23187 then high calcium solution” value with CaCC is recorded as “resulted in CaCC activation”.

Turning to `O=C(O)c1cccnc1Nc1cccc(C(F)(F)F)c1` [NFA, niflumic acid], the “effect on decay of the residual CaCC current” value in the experiment on endogenous CaCCs (30 μM NFA) is “slowed the decay of the residual current”. For the same compound, in the experiment with endogenous CaCCs (30 μM NFA, 1 min perfusion, ND96), the “effect on IP3-induced CaCC current amplitude” value was “reduced the IP3-induced CaCC current”. In addition, the “reversibility after removal of NFA” value in the experiment on endogenous CaCCs (after 5 min ND96 wash) is “restored both the amplitude and the kinetics of the CaCC current”. In addition, the “effect on amplitude of a CaCC current of long duration” value with xTMEM16A was “barely reduced in amplitude”.
